Counter-ions that a name gives are not always drawn.
Tests used:
[1] = test system: cardiac ischemia and reperfusion injury model pigs; test: Porcine cardiac ischemia and reperfusion injury model (KUS administration after reperfusion); format: in vivo, Yorkshire pig; settings: intracoronary injection 0.64, 2.5, or 5.0 mg/kg immediately after reperfusion, seven days after surgery
Description: Porcine myocardial infarction model was prepared as in Test 8. The balloon was released 60 minutes after the occlusion, and immediately KUS121 was administered by intracoronary injection at a dose of 0.64, 2.5, or 5.0 mg/kg for 3 minutes. Seven days after the surgery, the infarct size was evaluated by MRI and the infarcted area was determined by histological analysis as in Test 8.

[2] = test system: cardiac ischemia and reperfusion injury model pigs; test: Porcine cardiac ischemia and reperfusion injury model (intravenous and intracoronary administration of KUS); format: in vivo, Yorkshire pig
Description: Porcine myocardial infarction model was prepared by inserting a catheter into a Yorkshire pig under general anesthesia and occluding the left coronary artery with a balloon. An infusion solution was prepared by dissolving KUS121 (4 mg/kg) in 250 mL of glucose solution and administered by intravenous infusion that started 45 minutes after the occlusion of the coronary artery and continued for 3 hours. The balloon was released 60 minutes after the occlusion, and 10 mL of the infusion solution was infused intracoronarily.
One week after the occlusion, the infarct size was evaluated by late gadolinium enhanced MRI. […] The cardiac function was evaluated by determining left ventricular ejection fraction, end diastolic volume, end systolic volume, cardiac output, and left ventricular mass by MRI. The left ventricular systolic function was improved by KUS121 administration.
After the MRI, the occluded part of the left coronary artery was occluded again with the balloon catheter and 1% Evans blue was injected to the left and right coronary arteries (60 mL for the left coronary artery and 30 mL for the right coronary artery; non-infarct regions were stained blue). Additionally, 30 mL of 1% TTC solution was injected through the guidewire lumen of the occlusion balloon. Euthanasia was then performed by an intravenous injection of potassium chloride. The heart was isolated and 10-mm thick sections were prepared parallel to the atrioventricular groove. The sections were further immersed in 1% TTC solution for 10 minutes at 37° C. (regions not damaged by myocardial infarction were stained red). All sections were weighed and photographed. They were fixed in 10% formaldehyde and used for subsequent histological analysis. […] No difference was found in the area at risk between the […] group and the KUS group, but administration of KUS decreased the infarcted area per area at risk.

[3] = test system: CHOP and Bip, ER stress markers; test: Western blotting of ER stress markers in rat cardiomyoblasts in glucose-free medium; format: cell-based; settings: H9C2 cells, 200 μM KUS121 (FIG. 7)
Description: (§1) H9C2 cells, rat cardiomyoblasts, were cultured in Dulbecco's modified Eagle's medium (DMEM) supplemented with 5% fetal bovine serum in the presence of […] tunicamycin (Sigma-Aldrich Co. LLC), which induces ER stress, and 25, 50, 100, or […] KUS121 for 24 hours. The cells were counted by Countess II (Thermo Fisher Scientific). The intracellular ATP levels were measured using “Cell” ATP Assay reagent (TOYO B-Net Co., LTD). The luciferase activities, which indicate ATP levels, were measured with ARVO X3 (PerkinElmer, Inc.).
(§2) The cells cultured as above were subjected to Western blotting. […] After the protein concentrations were measured with BCA protein assay kit (Bio-Rad, 5000006JA), 15 μg of the protein samples were separated in NuPAGE 4-12% Bis-Tris Mini gels (Thermo Fisher Scientific) and transferred to Protran nitrocellulose transfer membrane (Whatman). The membrane was blocked with PBS containing 5% skim milk for 30 minutes, incubated with primary antibodies overnight at 4° C., washed with PBS-0.05% Tween-20 (PBS-T), incubated with secondary antibodies for 1 hour at room temperature, and washed with PBS-T. Pierce Western Blotting Substrate (Thermo Fisher Scientific) or Pierce Western Blotting Substrate plus (Thermo Fisher Scientific) were reacted with the secondary antibodies for producing colors, and the color intensities were measured by LAS-4000 Mini system (Fuji Film). […]

[4] = test system: H9C2 cells, rat cardiomyoblasts; test: Rat cardiomyoblasts under ER stress with tunicamycin: cell number and ATP level; format: cell-based; settings: 0.1 pg/mL tunicamycin, 25, 50, 100, or 200 pM KUS121, 24 hours
Description: as §1

[5] = test system: cardiac ischemia and reperfusion injury model mice; test: Mouse cardiac ischemia and reperfusion injury model (KUS administration after reperfusion); format: in vivo; settings: seven days after surgery
Description: Mouse myocardial infarction model was prepared as in Test 5.
First, immediately after the reperfusion KUS121 was administered intravenously at the dose of 80 mg/kg and intraperitoneally at the dose of 80 mg/kg. Subsequently, KUS121 was intraperitoneally administered at the dose of 160 mg/kg every 24 hours for 4 days. Seven days after the surgery, histological analysis was performed as in Test 5 to determine the infarcted area.
Immediately after the reperfusion KUS121 was administered intravenously at the dose of 25 mg/kg and intraperitoneally at the dose of 25 mg/kg. Subsequently, KUS121 was not administered. Seven days after the surgery, histological analysis was performed as in Test 5 to determine the infarcted area.
Immediately after the reperfusion KUS121 was administered intravenously at the dose of 8 mg/kg and intraperitoneally at the dose of 8 mg/kg. Subsequently, KUS121 was not administered. Seven days after the surgery, histological analysis was performed as in Test 5 to determine the infarcted area.

[6] = test system: CHOP and Bip, ER stress markers; test: Western blotting of ER stress markers in rat cardiomyoblasts under tunicamycin; format: cell-based; settings: H9C2 cells, 200 μM KUS121 (FIG. 5)
Description: as §1, §2

[7] = test system: A team mouse heart ischemia and reperfusion injury model; test: Mouse heart ischemia and reperfusion injury model (ATP visualization mouse); format: in vivo; settings: A team mice, 160 mg/kg i.p. 2 hours before reperfusion, 45 minutes ischemia
Source text: ATP visualization mouse (A team mouse) generated by Dr. Masamichi Yamamoto (Department of Nephrology, Graduate School of Medicine, Kyoto University) was used. In A team mouse fluorescence resonance energy transfer (FRET) from GFP to OFP occurs depending on the intracellular ATP level. The OFP/GFP ratio is proportional to the ATP level.
Anesthesia was induced in each A team mouse with 4% isoflurane and maintained with 2% isoflurane during surgery. An endotracheal tube was introduced after the anesthetic induction and positive pressure ventilation was provided. The lateral thoracic regions and subcostal margins were incised bilaterally and the thoracic cavity was opened to expose the heart. […] The ischemia was continued for 45 minutes and then reperfusion was induced by removing the PE10 tube. KUS121 was intraperitoneally administered at the dose of 160 mg/kg 2 hours before the reperfusion. For measuring the ATP level, fluorescence was excited at 470/40 and detected at 515/30 for GFP and 575/40 for OFP to acquire images. The OFP/GFP ratios were analyzed using MetaMorph (Molecular Devices). The ATP level during ischemia was decreased in the control group, but maintained in the KUS121 group.

[8] = test system: H9C2 cells, rat cardiomyoblasts; test: Rat cardiomyoblasts under ER stress by glucose depletion: cell number and ATP level; format: cell-based; settings: glucose-free medium, 25, 50, 100, or 200 μM KUS121 (FIG. 6)
Description: as §1
Similar experiments were performed using the cells cultured in a glucose-free medium. […] The expressions of CHOP and Bip, ER stress markers, were suppressed in the presence of KUS121.

[9] = test system: cardiac ischemia and reperfusion injury model mice; test: Mouse cardiac ischemia and reperfusion injury model (KUS administration prior to ischemia); format: in vivo
Description: Eight-week-old C57BL/6J mice were used. Each mouse was anesthetized with intraperitoneally administered pentobarbital (64.8 mg/kg). An endotracheal tube was introduced after the anesthetic induction and positive pressure ventilation was provided.
Each mouse was fixed in a right lateral position, the thoracic cavity was opened through left thoracotomy in the third intercostal space to expose the heart. […] The blockage of the coronary blood flow was confirmed by observing a change in the color of the myocardium. The ischemia was continued for 45 minutes and then reperfusion was induced by removing the PE10 tube. The reperfusion was confirmed by checking restoration of the color of the myocardium. The thoracic cavity was closed with 7-0 prolene sutures and the skin was closed with 4-0 silk sutures. After observing awakening from the anesthesia, the endotracheal tube was removed.
KUS121 dissolved in a physiological saline was injected prior to the ischemia induction. […] First, 2 hours before the reperfusion, i.e., about 1 hour before the start of the ischemia, KUS121 was intraperitoneally administered at the dose of 160 mg/kg. Subsequently, KUS121 was intraperitoneally administered at the dose of 160 mg/kg every 24 hours for 6 days.
Seven days after the surgery, the mice were anesthetized with pentobarbital, perfused with 4% paraformaldehyde (PFA) for fixation, and the hearts were isolated. The isolated hearts were further fixed in 4% PFA overnight. The hearts were embedded in paraffin and sections were prepared. The infarcted regions were evaluated with Masson's trichrome staining. The images were acquired using a microscope (BZ-9000, Keyence) and the infarcted areas were measured using Image J (NIH).
To evaluate the cardiac function, echocardiography (Vevo^(registered trademark) 2100, VISUALSONICS) was performed in the mouse ischemia and reperfusion injury model. […] The left ventricular systolic functions were evaluated by measuring the left ventricular fractional shortening and left ventricular ejection fraction in parasternal short axis views.

[10] = intravenous infusion plus intracoronary, histological analysis (Evans blue/TTC)

SMILES: Cc1cc(F)ccc1-c1ccc(/N=N/c2cc(S(=O)(=O)O)c3ccccc3c2N)cn1 [KUS121, 4-amino-3-[6-(4-fluoro-2-methylphenyl)pyridine-3-ylazo]naphthalene-1-sulfonic acid sodium salt]
- ratio of infarcted area/left ventricle (LV) area evaluated by MRI [1]: decreased in the KUS121 group in a dose-dependent manner
- ratio of infarcted area/AAR ([1]; histological analysis): decreased in the KUS121 group in a dose-dependent manner
- ratio of infarcted area/area at risk (AAR) (first mention) ([1]; versus control group): comparable with that of the control group
- left ventricular systolic function ([2]; 4 mg/kg intravenous infusion for 3 hours plus intracoronary infusion after reperfusion, MRI one week after occlusion): improved
- area at risk relative to the left ventricle [2, 10]: No difference
- infarcted area per area at risk [2, 10]: decreased
- expression of Bip [3]: suppressed
- expression of CHOP [3]: suppressed
- ATP level [4]: increased depending on the dose
- cell number [4]: increased depending on the dose
- infarcted area (ratio to left ventricle area) ([5]; (1) 160 mg/kg: 80 mg/kg i.v. + 80 mg/kg i.p. immediately after reperfusion, then 160 mg/kg i.p. every 24 hours for 4 days): smaller in the KUS121 group than in the control group
- infarcted area (ratio to left ventricle area) ([5]; (2) 50 mg/kg: 25 mg/kg i.v. + 25 mg/kg i.p. immediately after reperfusion only): smaller in the KUS121 group than in the control group
- infarcted area (ratio to left ventricle area) ([5]; (3) 16 mg/kg: 8 mg/kg i.v. + 8 mg/kg i.p. immediately after reperfusion only): No significant difference
- expression of Bip [6]: suppressed
- expression of CHOP [6]: suppressed
- ATP level during ischemia (OFP/GFP ratio) [7]: maintained
- ATP level [8]: increased depending on the dose
- cell number [8]: increased depending on the dose
- infarcted area (ratio to left ventricle area) ([9]; 160 mg/kg i.p. 2 hours before reperfusion and every 24 hours for 6 days, seven days after surgery, Masson's trichrome): smaller in the KUS121 group than in the control group
- expression of CHOP in the border zone and non-ischemic zone ([9]; 160 mg/kg i.p. prior to ischemia and every 24 hours, Western blotting): suppressed
- left ventricular systolic function (fractional shortening, ejection fraction) ([9]; 160 mg/kg i.p. prior to ischemia and every 24 hours, echocardiography): kept well at almost the same level as that in sham-operated group

Reference: US12011438B2, “Composition for protecting cardiomyocyte” (Kyoto University, priority 2018, dated 2024)
